Entries after “also recorded” stand apart in the source; their conditions may differ.

In assay [1] the test system is dendritic cells. The note with it: Non-Patent Document 2; cited from earlier work.
Assay [2] deals with mouse-derived dendritic cells (FL-DCs). Put plainly: Binding of phage clones to mouse-derived dendritic cells by flow cytometric analysis (Test Example 1). The format is cell-based. As to conditions: phage clone displaying the peptide, 1.6×10^10 pfu/mL, 1×10^5 mouse-derived dendritic cells, flow cytometry with antibody against the phage. The method, then: Meanwhile, in the following test examples, unless otherwise indicated, as mouse-derived dendritic cells, dendritic cells (FL-DCs) that were obtained by culturing murine bone marrow cells in the presence of Flt3-L (final concentration 100 ng/ml) for 1 week to induce differentiation were used. In addition, in the following test examples, FL-DCs were analyzed in some cases separately for Plasmacytoid DCs (pDCs), CD11b positive dendritic cells (CD11b^+ DCs), and CD11b negative dendritic cells (CD11b^− DCs). Among the mouse-derived dendritic cells, pDCs is a group of CD11c positive and B220 positive cells; CD11b^+ DCs is a group of CD11c positive, B220 negative and CD11b positive cells among mouse-derived dendritic cells; CD11b^− DCs is a group of CD11c positive, B220 negative, and CD11b negative cells among mouse-derived dendritic cells.
Each of phages recovered by three panning operations was monocloned and amplified. 1×10^5 mouse-derived dendritic cells and 1.6×10^10 pfu/mL of each phage clone were mixed, and then the phage was assayed for the binding to dendritic cells by flow cytometric analysis using an antibody against the phage.
About 60 phage clones obtained were subjected to flow cytometric analysis as described above. As a result, 37 clones shown in Table 1 were identified as clones capable of binding to dendritic cells. […]

For assay [3], the system named is dendritic cells contained in splenocytes. Put plainly: Binding of phage clones to dendritic cells contained in splenocytes, flow cytometry (Test Example 6). The format is cell-based, mouse. As to conditions: phage clone 1.6×10^10 pfu/mL, 1×10^5 splenocytes. Here is the method:
(§1) Specifically, 1×10^5 splenocytes collected from mice and 1.6×10^10 pfu/mL of each phage clone were mixed, and the biotinylated antibody to the phage was added. Further, streptavidin modified with a fluorescent dye was added, and the binding of the phage to splenocytes was evaluated by flow cytometric analysis.
On the technique in general: A flow cytometer gives signals particle by particle.

The subject of assay [4] is CD4^+ T cells contained in splenocytes. In words: Binding of phage clones to CD4+ T cells contained in splenocytes, flow cytometry (Test Example 6). The format is cell-based, mouse. The note with it: phage clone 1.6×10^10 pfu/mL, 1×10^5 splenocytes. Here is the method: as §1
The test system of assay [5] is bone marrow-derived dendritic cells (FL-DCs). Put plainly: Binding of biotinylated peptide/streptavidin complex to dendritic cells, flow cytometry (Test Example 7). It is filed as cell-based, mouse. As to conditions: 0.6 μg complex, PE-labeled streptavidin, FL-DCs and spleen-derived dendritic cells. Here is the method:
A biotinylated peptide/streptavidin complex was produced in the same manner as in Test Example 4 above using each of the peptide consisting of the amino acid sequence of FL4 identified in Test Example 1 above and its scramble peptide (amino acid sequence: YRSIVKA; SEQ ID NO: 38).
Each of various test cells and 0.6 μg of each of various complexes were mixed, and then the binding of each of various complexes to cells was evaluated by flow cytometric analysis. Cells used were 1×10^5 FL-DCs, 1×10^6 CD11c positive cells purified from the spleen using MACS (the spleen-derived dendritic cells) and 1×10^6 murine splenocytes.

Assay [6] has as its system NeutrAvidin-specific antibody. Put plainly: NeutrAvidin-specific antibody titer in sera of mice given biotinylated peptide/NeutrAvidin complex, ELISA (Test Example 12). The format is in vivo, mouse. As to conditions: 5 μg as NeutrAvidin, base of tail Day 0 and Day 10, serum Day 17, IgG. The source says: A biotinylated peptide was synthesized by linking the N-terminus of each of FL4 identified in Test Example 1, a peptide Mut 1 (amino acid sequence: ASYKAIR (SEQ ID NO: 2)) derived from FL4 of which the 1st amino acid residue was substituted by an alanine residue, a peptide Mut 2 (amino acid sequence: VAYKAIR (SEQ ID NO: 3)) derived from FL4 of which the 2nd amino acid residue was substituted by an alanine residue, a peptide Mut 3 (amino acid sequence: VSAKAIR, SEQ ID NO: 43) derived from FL4 of which the 3rd amino acid residue was substituted by an alanine residue, and a peptide Mut 4 (amino acid sequence: VSYKAAR, SEQ ID NO: 44) derived from FL4 of which the […] amino acid residue was substituted by an alanine residue to biotin. Subsequently, a biotinylated peptide/NeutrAvidin complex was produced by mixing each of the obtained biotinylated peptides and NeutrAvidin.
50 μL of physiological saline containing 5 μg of the complex or NeutrAvidin in terms of NeutrAvidin amount was administered into the base of the tail of each 7-week old C57BL/6 mouse on Day 0 and Day 10, and blood was collected on Day 17. As a control, a test was also carried out in the case where only physiological saline was administered in the same manner Meanwhile, in these tests, five mice in each group were used.
Sera were obtained from the blood collected on Day 17 and NeutrAvidin-specific antibody titer (IgG) in the sera was measured by ELISA. In FIG. 18, “NA” refers to the case of administration of NeutrAvidin, and “NA-FL4” refers to the case of administration of the biotinylated FL4/NeutrAvidin complex. Other peptides are shown in the same display format. Further, in FIG. 18, “cont” refers to the case where physiological saline was administered.
(In general: ELISA stands for enzyme-linked immunosorbent assay.)

For assay [7], the system named is Clec9a. As to conditions: Non-Patent Document 1; cited from earlier work.
Clec9a, sequence (Q8BRU4 106-238 limits assumed): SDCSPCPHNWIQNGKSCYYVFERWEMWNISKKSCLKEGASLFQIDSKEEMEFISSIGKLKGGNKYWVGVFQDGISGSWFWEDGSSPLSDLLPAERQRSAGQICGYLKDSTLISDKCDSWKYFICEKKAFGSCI

NWYLPWLGTNDW (NW peptide): in assay [1], the “binding ability to dendritic cells” value is “high binding ability to dendritic cells”.
Consider “VSYKAIR (Amino acid sequence of motif sequence) [FL4, also tested as biotinylated complex]”, for which, in assay [2], the “binding of phage clone to dendritic cells” value is “bound to all dendritic cells; also recorded: binding to bone marrow-derived dendritic cells was confirmed”. Besides, the “binding of phage clone to dendritic cells contained in splenocytes” value in assay [3] is on record as “bind to all dendritic cells contained in splenocytes; also recorded: equivalent to that of FL8”. In addition, the “binding of phage clone to CD4+ T cells contained in splenocytes” value in assay [4] is recorded as “also bound to CD4^+ T cells contained in splenocytes”. For the same substance, the “binding ability of biotinylated peptide/streptavidin complex to dendritic cells” value in assay [5] was “equivalent to that of the peptide consisting of the amino acid sequence of FL8”. For the same substance, the NeutrAvidin-specific antibody production entry in assay [6] is listed as “excellent production ability”.
As to WPRFHSSVFHTH (WH peptide), the “binding to Clec9a expressed on dendritic cells” value in assay [7] is on record as “can selectively bind to Clec9a”.
